*1 amine or outer side, *2 acyl side, *3 side chain or, on linkers, in order; H or OH if unused. Where a SMILES comes first, the peptide text is derived from it. The star is where a group is joined. 5TAMRA = CN(C)c1ccc2c(c1)Oc1cc(N(C)C)ccc1C21OC(=O)c2cc(C(=O)*)ccc21; Cysteamine = C(CS[*:2])N[*:1]
Assay: Drug uptake in lysosomes of human HeLa cells transfected with Cerulean-Lamp-1 plasmid at 1 uM after 1 hr by fluorescence microscopy; call rule not given here
Type: ADME, cell-based, Lysosome

Drug uptake | Compound
Active | CN(C)c1ccc2c(c1)Oc1cc(N(C)C)ccc1C21OC(=O)c2cc(C(=O)N[C@@H](CCCNC(=N)N)C(=O)N[C@@H](CCCNC(=N)N)C(=O)N[C@@H](CCCNC(=N)N)C(=O)N[C@@H](CCC(N)=O)C(=O)N[C@@H](CCCNC(=N)N)C(=O)N[C@@H](CCCNC(=N)N)C(=O)N[C@@H](CSSCCN)C(=O)N[C@@H](CSSCCN)C(=O)N[C@@H](CCCNC(=N)N)C(=O)NCC(=O)N[C@@H](Cc3ccc(O)cc3)C(=O)O)ccc21 (5TAMRA-RRRQRRC(Cysteamine)C(Cysteamine)RGY-OH)
Not Active | CN(C)c1ccc2c(c1)Oc1cc(N(C)C)ccc1C21OC(=O)c2cc(C(=O)N[C@@H](CCCNC(=N)N)C(=O)N[C@@H](CCCNC(=N)N)C(=O)N[C@@H](CCCNC(=N)N)C(=O)N[C@@H](CCC(N)=O)C(=O)N[C@@H](CCCNC(=N)N)C(=O)N[C@@H](CCCNC(=N)N)C(=O)N[C@@H](CSSCCN)C(=O)N[C@@H](CS)C(=O)N[C@@H](CCCNC(=N)N)C(=O)NCC(=O)N[C@@H](Cc3ccc(O)cc3)C(=O)O)ccc21 (5TAMRA-RRRQRRC(Cysteamine)CRGY-OH)
Not Active | CN(C)c1ccc2c(c1)Oc1cc(N(C)C)ccc1C21OC(=O)c2cc(C(=O)N[C@@H](CCCNC(=N)N)C(=O)N[C@@H](CCCNC(=N)N)C(=O)N[C@@H](CCCNC(=N)N)C(=O)N[C@@H](CCC(N)=O)C(=O)N[C@@H](CCCNC(=N)N)C(=O)N[C@@H](CCCNC(=N)N)C(=O)N[C@@H](CS)C(=O)N[C@@H](CSSCCN)C(=O)N[C@@H](CCCNC(=N)N)C(=O)NCC(=O)N[C@@H](Cc3ccc(O)cc3)C(=O)O)ccc21 (5TAMRA-RRRQRRCC(Cysteamine)RGY-OH)
Not Active | CN(C)c1ccc2c(c1)Oc1cc(N(C)C)ccc1C21OC(=O)c2cc(C(=O)N[C@@H](CCCNC(=N)N)C(=O)N[C@@H](CCCNC(=N)N)C(=O)N[C@@H](CCCNC(=N)N)C(=O)N[C@@H](CCC(N)=O)C(=O)N[C@@H](CCCNC(=N)N)C(=O)N[C@@H](CCCNC(=N)N)C(=O)N[C@@H](CS)C(=O)N[C@@H](CS)C(=O)N[C@@H](CCCNC(=N)N)C(=O)NCC(=O)N[C@@H](Cc3ccc(O)cc3)C(=O)O)ccc21 (5TAMRA-RRRQRRCCRGY-OH)

— ChEMBL document CHEMBL1268811, “A retro-inverso TAT-like peptide designed to deliver cysteamine to cells” (Bioorg Med Chem Lett, 2010)
